Source: patent US20140023611A1 (priority 2010, published 2014)
“And” between values parts separate entries of the source, which are not always exact repeats. Equal entries are not always repeated. Structures can show the parent of a compound that is named as a salt.

Columns and labels:
[1] = test system: Uptake of Phosphorus from the Intestine; test: In vivo co-dosing in chow (urine P out / P consumed); settings: Rattus norvegicus, feed or water, rats, compound in chow, read-out: Mean % inhibition Urine Pout/P consumed; for inhibition in vivo at 100 mg/kg/day: mean drug dose 100 mg/kg/day
How it was run: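 Male 7-week-old rats were fed a synthetic diet (0.6% P, 0.6% Ca) for 4 days, then housed in metabolic cages with compound in chow at 1.3 mg/g (nominal 100 mg/kg/day). Urinary P was measured by ion chromatography over 24–96 h and related to dietary P consumed. Percentage inhibition was calculated against no-drug controls.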

[2] = Stability of compounds in simulated gastric fluid (SGF); type: in vitro ADME; settings: simulated gastric fluid (3 mg/mL pepsin), incubation time 6 hr, relative to t=0
How it was run: (§1)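 Compounds at […] were incubated 3 or 6 hr in USP simulated gastric fluid with 3 mg/mL pepsin or simulated intestinal fluid with 3 mg/mL pancreatin. Remaining compound was quantified by HPLC-UV or HPLC-MS peak area % and reported as percent of the t=0 level in the same medium.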

[3] = Stability of compounds in simulated intestinal fluid (SIF); type: in vitro ADME; settings: simulated intestinal fluid (3 mg/mL pancreatin), incubation time 6 hr, relative to t=0
How it was run: as §1

human NaP2b (SLC34A2) = molecular target: T1, human NaP2b (SLC34A2) (Homo sapiens, UniProt O95436); test: Inhibition of NaP2b-mediated Pi (33P) uptake in transfected HEK293 cells, human NaP2b; type: cell-based; settings: read-out: pIC50 range for human NaP2b (converted)
T1 construct: host or cells: HEK293
T1 sequence (O95436 1-690): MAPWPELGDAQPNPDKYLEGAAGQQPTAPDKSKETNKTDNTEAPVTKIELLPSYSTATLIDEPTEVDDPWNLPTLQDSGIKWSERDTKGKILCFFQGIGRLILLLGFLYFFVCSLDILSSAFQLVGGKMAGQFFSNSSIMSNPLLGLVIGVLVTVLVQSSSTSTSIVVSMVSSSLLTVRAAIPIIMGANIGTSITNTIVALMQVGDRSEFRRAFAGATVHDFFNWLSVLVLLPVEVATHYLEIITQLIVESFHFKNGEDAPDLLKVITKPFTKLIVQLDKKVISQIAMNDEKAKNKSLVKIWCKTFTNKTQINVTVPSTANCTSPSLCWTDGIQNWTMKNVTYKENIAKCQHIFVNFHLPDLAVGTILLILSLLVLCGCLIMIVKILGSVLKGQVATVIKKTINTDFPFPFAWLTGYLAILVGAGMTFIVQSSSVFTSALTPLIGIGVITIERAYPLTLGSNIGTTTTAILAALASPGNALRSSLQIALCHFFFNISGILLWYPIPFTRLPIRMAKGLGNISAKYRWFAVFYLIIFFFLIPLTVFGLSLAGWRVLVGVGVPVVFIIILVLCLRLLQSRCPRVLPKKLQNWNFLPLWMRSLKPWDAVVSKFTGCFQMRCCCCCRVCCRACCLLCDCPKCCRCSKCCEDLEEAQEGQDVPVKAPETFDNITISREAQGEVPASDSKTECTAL
How it was run: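 HEK293 cells transiently transfected with human NaP2b (Thr inserted after residue 37, N39D), endogenous PiT transport pharmacologically silenced. Sodium or choline buffer, pH 7.4, with 100 uM KH2PO4, 33P orthophosphate and compound (0.1 nM–30 uM, twelve concentrations, duplicate). 3-30 min at room temperature, scintillation counting, pIC50 derived.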

% remaining, SGF [2]	% remaining, SIF [3]	IC50 (human NaP2b (SLC34A2))	SMILES	inhibition in vivo at 50 mg/kg/day ([1]; mean drug dose 50 mg/kg/day)	inhibition in vivo at 90 mg/kg/day ([1]; mean drug dose 90 mg/kg/day)	inhibition in vivo at 100 mg/kg/day [1]	inhibition in vivo at 120 mg/kg/day ([1]; mean drug dose 120 mg/kg/day)	inhibition in vivo at 130 mg/kg/day ([1]; mean drug dose 130 mg/kg/day)
>80%	>80%	< 1000 nM	CCN(CC)c1ccc(NC(=O)c2cccc(CCCOCCOCCOCCOCCOCCOCCOCCOCCOC)c2)c(-c2cc(C(=O)NCc3cccc(C(F)(F)F)c3)ccn2)c1 [Example 269, 2-(2-(3-(2,5,8,11,14,17,20,23,26-nonaoxanonacosan-29-yl)benzamido)-5-(diethylamino)phenyl)-N-(3-(trifluoromethyl)benzyl)isonicotinamide]	–	–	≤ 10%	–	–
>80%	>80%	< 1000 nM	CCN(CC)c1ccc(NC(=O)c2cccc(CSCCOCCOCCOCCOCCOCCOCCOCCOC)c2)c(-c2cc(C(=O)N[C@H]3CCCc4ccccc43)ccn2)c1 [Example 286, (S)-2-(2-(3-(2,5,8,11,14,17,20,23-octaoxa-26-thiaheptacosan-27-yl)benzamido)-5-(diethylamino)phenyl)-N-(1,2,3,4-tetrahydronaphthalen-1-yl)isonicotinamide]	–	–	–	–	10 to 30%
>80%	>80%	1000 to 7940 nM	CCN(CC)c1ccc(NC(=O)c2cccc(C(=O)N(C)CCN(CCOC)CCOCCOCCOCCOCCOCCOCCOC)c2)c(-c2cc(C(=O)NCc3cccc(C(F)(F)F)c3)ccn2)c1 [Example 335, N^1-(4-(Diethylamino)-2-(4-(3-(trifluoromethyl)benzylcarbamoyl)pyridin-2-yl)phenyl)-N^3-(23-(2-methoxyethyl)-2,5,8,11,14,17,20-heptaoxa-23-azapentacosan-25-yl)-N^3-methylisophthalamide, trifluoroacetate]	–	–	≤ 10%	–	–

Further lines, the compound ahead of its results:

SMILES	% remaining, SGF [2]	% remaining, SIF [3]	IC50 (human NaP2b (SLC34A2))	inhibition in vivo at 50 mg/kg/day ([1]; mean drug dose 50 mg/kg/day)	inhibition in vivo at 90 mg/kg/day ([1]; mean drug dose 90 mg/kg/day)	inhibition in vivo at 100 mg/kg/day [1]	inhibition in vivo at 120 mg/kg/day ([1]; mean drug dose 120 mg/kg/day)	inhibition in vivo at 130 mg/kg/day ([1]; mean drug dose 130 mg/kg/day)
CCN(CC)c1ccc(NC(=O)c2cccc(CCCOCCOCCOCCOCCC(=O)O)c2)c(-c2cc(C(=O)NCc3cccc(C(F)(F)F)c3)ccn2)c1 [Example 251, 16-(3-(4-(diethylamino)-2-(4-(3-(trifluoromethyl)benzylcarbamoyl)pyridin-2-yl)phenylcarbamoyl)phenyl)-4,7,10,13-tetraoxahexadecan-1-oic acid]	>80%	>80%	< 1000 nM	≤ 10%	–	–	–	–
O=C(O)CCOCCOCCOCCOCCCc1cccc(C(=O)Nc2ccc(N3CCCCC3)cc2-c2cc(C(=O)N[C@H]3CCCc4ccccc43)ccn2)c1 [Example 252, 3-(2-(2-(2-(3-(3-((2-(4-(((S)-1,2,3,4-tetrahydronaphthalen-1-yl)carbamoyl)pyridin-2-yl)-4-(piperidin-1-yl)phenyl)carbamoyl)phenyl)propoxy)ethoxy)ethoxy)ethoxy)propanoic acid]	>80%	>80%	< 1000 nM	–	10 to 30%	–	–	–
CCN(CC)c1ccc(NC(=O)c2cccc(CCCOCCOCCOCCOCCOCCOCCOCCOCCOC)c2)c(-c2cc(C(=O)N[C@H]3CCCc4ccccc43)ccn2)c1 [Example 261, (S)-2-(2-(3-(2,5,8,11,14,17,20,23,26-nonaoxanonacosan-29-yl)benzamido)-5-(diethylamino)phenyl)-N-(1,2,3,4-tetrahydronaphthalen-1-yl)isonicotinamide]	>80%	60-80% and >80%	< 1000 nM	–	–	10 to 30%	–	–
CCN(CC)c1ccc(NC(=O)c2cccc(CSCCOCCOCCOCCOCCOCCOCCOCCOC)c2)c(-c2cc(C(=O)NCc3cccc(C(F)(F)F)c3)ccn2)c1 [Example 265, 2-(2-(3-(2,5,8,11,14,17,20,23-octaoxa-26-thiaheptacosan-27-yl)benzamido)-5-(diethylamino)phenyl)-N-(3-(trifluoromethyl)benzyl)isonicotinamide]	>80%	>80%	< 1000 nM	–	–	–	≤ 10%	–
